Test results as given in the kinase profiling compilation of Christmann-Franck et al. (2016).

Experiments:
Assay in all cases: radiometric filter-binding kinase assay
ABL1 (human) = ABL1 (human) (UniProt P00519); settings: compound 100.0 µM; ATP 5 µM
[1] = tested on: AKT2 (human), P31751 [S474D]; settings: compound 100.0 µM; ATP 50 µM
CDK2 CCNA2 (human) = CDK2 CCNA2 (human) (UniProt P20248+P24941); settings: compound 100.0 µM; ATP 20 µM
CHEK2 (human) = CHEK2 (human) (UniProt O96017); settings: compound 100.0 µM; ATP 20 µM
CSNK2A1 (human) = CSNK2A1 (human) (UniProt P68400); settings: compound 100.0 µM; ATP 5 µM
DYRK2 (human) = DYRK2 (human) (UniProt Q92630); settings: compound 100.0 µM; ATP 50 µM
EPHB2 (human) = EPHB2 (human) (UniProt P29323); settings: compound 100.0 µM; ATP 20 µM
FLT1 (human) = FLT1 (human) (UniProt P17948); settings: compound 100.0 µM; ATP 20 µM
HIPK2 (human) = HIPK2 (human) (UniProt Q9H2X6); settings: compound 100.0 µM; ATP 5 µM
IGF1R (human) = IGF1R (human) (UniProt P08069); settings: compound 100.0 µM; ATP 5 µM
IKBKB (human) = IKBKB (human) (UniProt O14920); settings: compound 100.0 µM; ATP 5 µM
INSR (human) = INSR (human) (UniProt P06213); settings: compound 100.0 µM; ATP 20 µM
INSRR (human) = INSRR (human) (UniProt P14616); settings: compound 100.0 µM; ATP 5 µM
JAK2 JH1 JH2 (human) = JAK2 JH1 JH2 (human) (UniProt O60674); settings: compound 100.0 µM; ATP 5 µM
MAP3K11 (human) = MAP3K11 (human) (UniProt Q16584); settings: compound 100.0 µM; ATP 20 µM
MAPK1 (human) = MAPK1 (human) (UniProt P28482); settings: compound 100.0 µM; ATP 20 µM
MAPK13 (human) = MAPK13 (human) (UniProt O15264); settings: compound 100.0 µM; ATP 5 µM
MAPK14 (human) = MAPK14 (human) (UniProt Q16539); settings: compound 100.0 µM; ATP 50 µM
MAPK3 (human) = MAPK3 (human) (UniProt P27361); settings: compound 100.0 µM; ATP 5 µM
MAPK9 (human) = MAPK9 (human) (UniProt P45984); settings: compound 100.0 µM; ATP 20 µM
MAPKAPK3 (human) = MAPKAPK3 (human) (UniProt Q16644); settings: compound 100.0 µM; ATP 20 µM
MAPKAPK5 (human) = MAPKAPK5 (human) (UniProt Q8IW41); settings: compound 100.0 µM; ATP 20 µM
MELK (human) = MELK (human) (UniProt Q14680); settings: compound 100.0 µM; ATP 50 µM
MINK1 (human) = MINK1 (human) (UniProt Q8N4C8); settings: compound 100.0 µM; ATP 50 µM
MKNK2 (human) = MKNK2 (human) (UniProt Q9HBH9); settings: compound 100.0 µM; ATP 50 µM
NEK2 (human) = NEK2 (human) (UniProt P51955); settings: compound 100.0 µM; ATP 50 µM
[2] = tested on: PAK2 (human), Q13177 [T402E]; settings: compound 100.0 µM; ATP 20 µM
PAK4 (human) = PAK4 (human) (UniProt O96013); settings: compound 100.0 µM; ATP 5 µM
PDPK1 (human) = PDPK1 (human) (UniProt O15530); settings: compound 100.0 µM
PIM2 (human) = PIM2 (human) (UniProt Q9P1W9); settings: compound 100.0 µM; ATP 5 µM
PKN2 (human) = PKN2 (human) (UniProt Q16513); settings: compound 100.0 µM; ATP 5 µM
RPS6KA3 KD1 KD2 (human) = RPS6KA3 KD1 KD2 (human) (UniProt P51812); settings: compound 100.0 µM; ATP 50 µM
RPS6KA5 KD1 KD2 (human) = RPS6KA5 KD1 KD2 (human) (UniProt O75582); settings: compound 100.0 µM; ATP 20 µM
[3] = tested on: SGK1 (human), O00141 [S422D]; settings: compound 100.0 µM; ATP 20 µM
SRPK1 (human) = SRPK1 (human) (UniProt Q96SB4); settings: compound 100.0 µM; ATP 50 µM
[4] = biological target: STK11 CAB39 STRADA (human) (UniProt Q9Y376+Q7RTN6+Q15831); settings: compound 100.0 µM; ATP 20 µM
TTK (human) = TTK (human) (UniProt P33981); settings: compound 100.0 µM; ATP 20 µM
YES1 (human) = YES1 (human) (UniProt P07947); settings: compound 100.0 µM; ATP 20 µM
ZAP70 (human) = ZAP70 (human) (UniProt P43403); settings: compound 100.0 µM; ATP 5 µM

HIPK2 (human), sequence (Q9H2X6 whole entry, looked up): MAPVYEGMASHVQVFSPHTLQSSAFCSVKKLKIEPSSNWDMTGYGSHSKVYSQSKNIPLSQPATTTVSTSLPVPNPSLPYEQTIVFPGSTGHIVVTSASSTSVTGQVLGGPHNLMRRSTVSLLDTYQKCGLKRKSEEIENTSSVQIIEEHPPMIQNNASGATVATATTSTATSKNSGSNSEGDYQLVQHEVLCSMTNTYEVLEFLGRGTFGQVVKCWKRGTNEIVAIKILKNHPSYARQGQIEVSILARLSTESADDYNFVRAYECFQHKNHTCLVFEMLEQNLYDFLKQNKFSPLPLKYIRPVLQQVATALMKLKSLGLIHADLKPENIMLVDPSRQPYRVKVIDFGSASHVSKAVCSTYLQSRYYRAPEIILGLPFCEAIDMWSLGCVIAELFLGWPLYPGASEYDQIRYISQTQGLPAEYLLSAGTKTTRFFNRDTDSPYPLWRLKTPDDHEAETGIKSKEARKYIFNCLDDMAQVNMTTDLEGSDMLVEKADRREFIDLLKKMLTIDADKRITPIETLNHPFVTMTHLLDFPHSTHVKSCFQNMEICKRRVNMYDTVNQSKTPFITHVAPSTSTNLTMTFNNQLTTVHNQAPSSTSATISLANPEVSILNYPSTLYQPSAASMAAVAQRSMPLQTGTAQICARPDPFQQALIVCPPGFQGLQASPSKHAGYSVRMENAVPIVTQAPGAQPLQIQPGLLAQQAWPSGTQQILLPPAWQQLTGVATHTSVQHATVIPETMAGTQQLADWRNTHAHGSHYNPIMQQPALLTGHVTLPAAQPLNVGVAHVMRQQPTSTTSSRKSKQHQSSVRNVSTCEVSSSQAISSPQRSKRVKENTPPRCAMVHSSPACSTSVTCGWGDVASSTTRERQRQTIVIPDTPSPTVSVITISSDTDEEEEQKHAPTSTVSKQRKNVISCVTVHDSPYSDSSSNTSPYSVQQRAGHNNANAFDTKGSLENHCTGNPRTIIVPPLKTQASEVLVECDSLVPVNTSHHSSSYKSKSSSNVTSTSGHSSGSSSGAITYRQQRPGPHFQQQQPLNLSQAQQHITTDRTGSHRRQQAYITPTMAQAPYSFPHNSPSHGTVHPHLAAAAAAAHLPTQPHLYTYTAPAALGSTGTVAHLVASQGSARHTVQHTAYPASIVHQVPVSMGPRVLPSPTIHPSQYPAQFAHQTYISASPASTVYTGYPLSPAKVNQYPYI
PIM2 (human), sequence (Q9P1W9 whole entry, looked up): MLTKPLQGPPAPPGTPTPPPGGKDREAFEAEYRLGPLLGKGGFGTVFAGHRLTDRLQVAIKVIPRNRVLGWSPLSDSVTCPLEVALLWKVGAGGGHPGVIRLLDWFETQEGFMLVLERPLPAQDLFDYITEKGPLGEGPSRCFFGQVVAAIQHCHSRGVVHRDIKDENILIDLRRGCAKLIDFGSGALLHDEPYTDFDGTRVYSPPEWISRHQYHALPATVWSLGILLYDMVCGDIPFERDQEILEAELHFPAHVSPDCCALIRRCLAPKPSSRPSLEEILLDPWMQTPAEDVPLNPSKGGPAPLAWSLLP
PAK2 (human), Q13177 [T402E], sequence (Q13177 whole entry T402E, looked up): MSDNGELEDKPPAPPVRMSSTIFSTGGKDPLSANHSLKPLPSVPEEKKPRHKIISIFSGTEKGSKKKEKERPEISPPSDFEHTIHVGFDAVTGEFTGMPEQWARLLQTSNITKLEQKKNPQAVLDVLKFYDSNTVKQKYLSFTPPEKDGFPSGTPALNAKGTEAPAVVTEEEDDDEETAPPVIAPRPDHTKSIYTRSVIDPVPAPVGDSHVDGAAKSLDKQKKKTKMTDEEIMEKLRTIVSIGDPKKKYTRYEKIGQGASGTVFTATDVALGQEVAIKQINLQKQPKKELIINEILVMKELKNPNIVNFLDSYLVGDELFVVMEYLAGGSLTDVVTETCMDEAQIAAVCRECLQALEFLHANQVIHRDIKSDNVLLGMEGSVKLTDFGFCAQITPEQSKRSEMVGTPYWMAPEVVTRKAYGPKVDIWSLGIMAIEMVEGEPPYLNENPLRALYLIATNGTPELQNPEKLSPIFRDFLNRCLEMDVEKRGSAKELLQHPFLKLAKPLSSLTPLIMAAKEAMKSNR
EPHB2 (human), sequence (P29323 whole entry, looked up): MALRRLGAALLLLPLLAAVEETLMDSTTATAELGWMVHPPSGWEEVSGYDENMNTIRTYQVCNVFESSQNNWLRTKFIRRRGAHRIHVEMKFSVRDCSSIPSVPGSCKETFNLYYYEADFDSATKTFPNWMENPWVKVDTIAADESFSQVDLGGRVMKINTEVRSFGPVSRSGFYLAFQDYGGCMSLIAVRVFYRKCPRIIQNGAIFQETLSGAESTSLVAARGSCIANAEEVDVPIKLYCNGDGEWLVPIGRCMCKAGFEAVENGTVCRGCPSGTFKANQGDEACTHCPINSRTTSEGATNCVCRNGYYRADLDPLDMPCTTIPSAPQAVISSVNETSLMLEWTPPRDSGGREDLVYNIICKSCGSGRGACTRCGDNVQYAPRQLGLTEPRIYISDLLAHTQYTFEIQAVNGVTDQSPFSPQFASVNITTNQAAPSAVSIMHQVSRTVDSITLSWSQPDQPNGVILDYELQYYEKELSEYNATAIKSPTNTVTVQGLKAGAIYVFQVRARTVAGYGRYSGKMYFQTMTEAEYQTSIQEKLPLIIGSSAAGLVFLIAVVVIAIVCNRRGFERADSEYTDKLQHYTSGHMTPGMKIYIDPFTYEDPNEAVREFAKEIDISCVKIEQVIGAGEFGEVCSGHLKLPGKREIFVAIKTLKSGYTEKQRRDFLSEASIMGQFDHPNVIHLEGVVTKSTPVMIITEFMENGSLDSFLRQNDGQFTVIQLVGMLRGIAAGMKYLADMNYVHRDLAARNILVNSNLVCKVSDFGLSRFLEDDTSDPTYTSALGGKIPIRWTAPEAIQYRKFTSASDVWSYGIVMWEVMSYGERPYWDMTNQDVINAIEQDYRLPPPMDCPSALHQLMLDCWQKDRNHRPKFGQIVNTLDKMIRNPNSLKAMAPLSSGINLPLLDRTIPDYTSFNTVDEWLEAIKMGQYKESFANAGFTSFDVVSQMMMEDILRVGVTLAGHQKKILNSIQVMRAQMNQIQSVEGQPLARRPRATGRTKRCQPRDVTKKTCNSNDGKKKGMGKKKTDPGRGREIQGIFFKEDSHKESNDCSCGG
TTK (human), sequence (P33981 whole entry, looked up): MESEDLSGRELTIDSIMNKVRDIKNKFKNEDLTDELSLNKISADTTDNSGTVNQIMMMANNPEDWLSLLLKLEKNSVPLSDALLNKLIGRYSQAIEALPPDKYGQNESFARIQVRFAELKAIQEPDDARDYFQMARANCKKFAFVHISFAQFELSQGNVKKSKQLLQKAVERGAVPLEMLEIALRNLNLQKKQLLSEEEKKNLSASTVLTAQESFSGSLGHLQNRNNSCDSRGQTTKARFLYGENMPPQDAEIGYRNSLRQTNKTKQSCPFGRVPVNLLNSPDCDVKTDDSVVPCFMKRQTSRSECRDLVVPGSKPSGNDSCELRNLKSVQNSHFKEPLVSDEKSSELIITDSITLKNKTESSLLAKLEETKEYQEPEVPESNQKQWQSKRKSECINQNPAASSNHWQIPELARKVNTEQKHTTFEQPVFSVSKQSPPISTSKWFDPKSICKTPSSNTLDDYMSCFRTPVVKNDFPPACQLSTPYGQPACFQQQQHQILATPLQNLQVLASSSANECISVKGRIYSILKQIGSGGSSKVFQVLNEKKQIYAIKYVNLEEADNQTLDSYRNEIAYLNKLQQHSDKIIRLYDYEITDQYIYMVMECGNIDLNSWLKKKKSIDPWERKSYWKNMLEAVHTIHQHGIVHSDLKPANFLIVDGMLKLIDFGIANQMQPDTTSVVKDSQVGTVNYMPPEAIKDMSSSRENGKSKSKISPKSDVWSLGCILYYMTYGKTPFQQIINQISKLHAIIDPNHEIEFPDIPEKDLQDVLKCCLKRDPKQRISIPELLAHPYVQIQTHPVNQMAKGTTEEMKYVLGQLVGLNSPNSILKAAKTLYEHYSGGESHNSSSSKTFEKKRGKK
PAK4 (human), sequence (O96013 whole entry, looked up): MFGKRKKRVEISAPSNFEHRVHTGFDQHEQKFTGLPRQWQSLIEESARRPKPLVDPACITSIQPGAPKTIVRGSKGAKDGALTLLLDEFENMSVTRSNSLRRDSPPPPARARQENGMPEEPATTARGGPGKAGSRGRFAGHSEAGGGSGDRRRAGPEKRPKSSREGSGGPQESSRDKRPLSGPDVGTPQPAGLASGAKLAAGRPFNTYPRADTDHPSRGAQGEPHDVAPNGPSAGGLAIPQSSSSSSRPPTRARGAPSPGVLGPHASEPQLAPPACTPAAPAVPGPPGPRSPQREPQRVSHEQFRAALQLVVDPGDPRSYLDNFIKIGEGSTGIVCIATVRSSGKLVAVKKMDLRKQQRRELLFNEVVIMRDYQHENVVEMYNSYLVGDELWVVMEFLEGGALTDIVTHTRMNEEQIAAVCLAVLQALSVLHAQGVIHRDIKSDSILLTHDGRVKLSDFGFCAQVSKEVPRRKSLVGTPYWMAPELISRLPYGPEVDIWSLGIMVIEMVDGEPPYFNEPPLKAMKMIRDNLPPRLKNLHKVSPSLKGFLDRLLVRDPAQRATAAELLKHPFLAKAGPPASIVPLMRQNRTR
MKNK2 (human), sequence (Q9HBH9 whole entry, looked up): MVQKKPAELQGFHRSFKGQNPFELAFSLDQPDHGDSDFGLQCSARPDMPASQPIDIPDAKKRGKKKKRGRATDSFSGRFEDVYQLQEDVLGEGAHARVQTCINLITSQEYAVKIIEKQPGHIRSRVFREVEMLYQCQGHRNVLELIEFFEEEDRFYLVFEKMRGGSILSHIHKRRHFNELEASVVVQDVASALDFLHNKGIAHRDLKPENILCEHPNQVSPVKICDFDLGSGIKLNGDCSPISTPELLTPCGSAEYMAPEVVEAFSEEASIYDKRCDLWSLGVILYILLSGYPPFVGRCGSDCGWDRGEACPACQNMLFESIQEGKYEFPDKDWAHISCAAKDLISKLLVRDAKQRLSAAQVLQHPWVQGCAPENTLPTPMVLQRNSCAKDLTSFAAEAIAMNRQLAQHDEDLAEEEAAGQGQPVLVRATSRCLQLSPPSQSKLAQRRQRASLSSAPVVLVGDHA

| inhibition (ABL1 (human)) | inhibition [1] | inhibition (CDK2 CCNA2 (human)) | inhibition (CHEK2 (human)) | inhibition (CSNK2A1 (human)) | inhibition (DYRK2 (human)) | inhibition (EPHB2 (human)) | inhibition (FLT1 (human)) | inhibition (HIPK2 (human)) | inhibition (IGF1R (human)) | inhibition (IKBKB (human)) | inhibition (INSR (human)) | inhibition (INSRR (human)) | inhibition (JAK2 JH1 JH2 (human)) | inhibition (MAP3K11 (human)) | inhibition (MAPK1 (human)) | inhibition (MAPK13 (human)) | inhibition (MAPK14 (human)) | inhibition (MAPK3 (human)) | inhibition (MAPK9 (human)) | Structure (SMILES) | also measured |
| --- | --- | --- | --- | --- | --- | --- | --- | --- | --- | --- | --- | --- | --- | --- | --- | --- | --- | --- | --- | --- | --- |
| 40% | 68% | 88% | 25% | 94% | 20% | 29% | 72% | 18% | 85% | 66% | 88% | 51% | 89% | 63% | 13% | 0% | 0% | 23% | 17% | Nc1cnc2c(-c3c(F)cccc3F)cccn2c1=O | inhibition (MAPKAPK3 (human)): 54%; inhibition (MAPKAPK5 (human)): 83%; inhibition (MELK (human)): 43%; inhibition (MINK1 (human)): 75%; inhibition (MKNK2 (human)): 6%; inhibition (NEK2 (human)): 0%; inhibition [2]: 41%; inhibition (PAK4 (human)): 50%; inhibition (PDPK1 (human); ATP 20 µM): 20%; inhibition (PDPK1 (human); ATP 50 µM): 57%; inhibition (PIM2 (human)): 21%; inhibition (PKN2 (human)): 73%; inhibition (RPS6KA3 KD1 KD2 (human)): 52%; inhibition (RPS6KA5 KD1 KD2 (human)): 33%; inhibition [3]: 0%; inhibition (SRPK1 (human)): 58%; inhibition [4]: 62%; inhibition (TTK (human)): 45%; inhibition (YES1 (human)): 57%; inhibition (ZAP70 (human)): 1% |
| 2% | 24% | 8% | 0% | 97% | 40% | 20% | 54% | 0% | 0% | 22% | 1% | 1% | 35% | 0% | 12% | 0% | 0% | 0% | 6% | CC1CN(c2nc3ccccn3c(=O)c2N)CC(C)O1 (stereo not given) | inhibition (MAPKAPK3 (human)): 70%; inhibition (MAPKAPK5 (human)): 75%; inhibition (MELK (human)): 7%; inhibition (MINK1 (human)): 2%; inhibition (MKNK2 (human)): 0%; inhibition (NEK2 (human)): 0%; inhibition [2]: 3%; inhibition (PAK4 (human)): 0%; inhibition (PDPK1 (human); ATP 20 µM): 31%; inhibition (PDPK1 (human); ATP 50 µM): 26%; inhibition (PIM2 (human)): 19%; inhibition (PKN2 (human)): 0%; inhibition (RPS6KA3 KD1 KD2 (human)): 84%; inhibition (RPS6KA5 KD1 KD2 (human)): 0%; inhibition [3]: 0%; inhibition (SRPK1 (human)): 74%; inhibition [4]: 0%; inhibition (TTK (human)): 3%; inhibition (YES1 (human)): 57%; inhibition (ZAP70 (human)): 38% |
| 15% | 47% | 10% | 34% | 41% | 53% | 27% | 74% | 38% | 0% | 37% | 0% | 0% | 75% | 23% | 1% | 0% | 0% | 19% | 0% | O=C(c1cccc(-c2cc3c(=O)[nH]cnc3s2)c1)N1CCOCC1 | inhibition (MAPKAPK3 (human)): 61%; inhibition (MAPKAPK5 (human)): 0%; inhibition (MELK (human)): 25%; inhibition (MINK1 (human)): 40%; inhibition (MKNK2 (human)): 30%; inhibition (NEK2 (human)): 2%; inhibition [2]: 0%; inhibition (PAK4 (human)): 34%; inhibition (PDPK1 (human); ATP 20 µM): 16%; inhibition (PDPK1 (human); ATP 50 µM): 53%; inhibition (PIM2 (human)): 13%; inhibition (PKN2 (human)): 0%; inhibition (RPS6KA3 KD1 KD2 (human)): 39%; inhibition (RPS6KA5 KD1 KD2 (human)): 24%; inhibition [3]: 14%; inhibition (SRPK1 (human)): 19%; inhibition [4]: 0%; inhibition (TTK (human)): 0%; inhibition (YES1 (human)): 0%; inhibition (ZAP70 (human)): 0% |
